PubChem BioAssay AID248 (DTP/NCI, 2004)
Where “and” joins values, the source holds several entries; their conditions need not be identical. Equal entries are not always repeated. Toxic doses and inconclusive results are not listed.

System: L1210 leukemia ip in BDF1 mice, survival T/C
Assay: NCI In Vivo Anticancer Drug Screen. Data for tumor model L1210 Leukemia (intraperitoneal) in B6D2F1 (BDF1) mice
Settings: endpoint: mean survival time, higher = longer survival
How it was run: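 Survival endpoint. Drug-treated group vs vehicle group, expressed as T divided by C. Tumor passaged by transplantation.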

[1] = dose: 100.0 mg/kg/injection, schedule: Q01DX009 (ip), vehicle: saline
[2] = dose: 100.0 mg/kg/injection, schedule: Q04DX003 (ip), vehicle: saline
[3] = dose: 200.0 mg/kg/injection, schedule: Q01DX009 (ip), vehicle: saline
[4] = dose: 200.0 mg/kg/injection, schedule: Q04DX003 (ip), vehicle: saline
[5] = dose: 400.0 mg/kg/injection, schedule: Q01DX009 (ip), vehicle: saline
[6] = dose: 400.0 mg/kg/injection, schedule: Q04DX003 (ip), vehicle: saline
[7] = dose: 100.0 mg/kg/injection, schedule: Q01DX001 (ip), vehicle: Klucel (hydroxypropylcellulose) (HPC)
[8] = dose: 100.0 mg/kg/injection, schedule: Q04DX003 (ip), vehicle: Klucel (hydroxypropylcellulose) (HPC)
[9] = dose: 200.0 mg/kg/injection, schedule: Q01DX001 (ip), vehicle: Klucel (hydroxypropylcellulose) (HPC)
[10] = dose: 100.0 mg/kg/injection, schedule: Q04DX002 (ip), vehicle: saline with Tween-80
[11] = dose: 200.0 mg/kg/injection, schedule: Q04DX002 (ip), vehicle: saline with Tween-80
[12] = dose: 400.0 mg/kg/injection, schedule: Q04DX002 (ip), vehicle: saline with Tween-80
[13] = dose: 100.0 mg/kg/injection, schedule: Q04DX003 (ip), vehicle: saline with Tween-80
[14] = dose: 200.0 mg/kg/injection, schedule: Q04DX003 (ip), vehicle: saline with Tween-80
[15] = dose: 400.0 mg/kg/injection, schedule: Q04DX003 (ip), vehicle: saline with Tween-80
[16] = dose: 100.0 mg/kg/injection, schedule: Q01DX001 (ip), vehicle: saline
[17] = dose: 200.0 mg/kg/injection, schedule: Q01DX001 (ip), vehicle: saline
[18] = dose: 400.0 mg/kg/injection, schedule: Q01DX001 (ip), vehicle: saline
[19] = dose: 25.0 mg/kg/injection, schedule: Q01DX009 (ip), vehicle: saline
[20] = dose: 50.0 mg/kg/injection, schedule: Q01DX009 (ip), vehicle: saline
[21] = dose: 100.0 mg/kg/injection, schedule: Q01DX009 (ip), vehicle: saline with Tween-80

C=CCOc1ccn(C)c(=O)n1
T/C [1]: 98 % of control
T/C [2]: 108 % of control
T/C [3]: 101 % of control
T/C [4]: 97 % of control
T/C [5]: 98 % of control
T/C [6]: 111 % of control

Cc1ccc2[nH]c3c(c2c1)C[P+](Cc1cccc2ccccc12)(c1ccccc1)CC3 (stereo not drawn)
T/C (dose: 25.0 mg/kg/injection, schedule: Q01DX001 (ip), vehicle: Klucel (hydroxypropylcellulose) (HPC)): 87 % of control
T/C (dose: 25.0 mg/kg/injection, schedule: Q04DX003 (ip), vehicle: Klucel (hydroxypropylcellulose) (HPC)): 91 % of control
T/C (dose: 50.0 mg/kg/injection, schedule: Q01DX001 (ip), vehicle: Klucel (hydroxypropylcellulose) (HPC)): 92 % of control
T/C (dose: 50.0 mg/kg/injection, schedule: Q04DX003 (ip), vehicle: Klucel (hydroxypropylcellulose) (HPC)): 105 % of control
T/C [7]: 112 % of control and 86 % of control
T/C [8]: 99 % of control
T/C [9]: 95 % of control

CCC(C)COS(=O)(=O)c1ccc(C)cc1 (stereo not drawn)
T/C [10]: 103 % of control
T/C [11]: 103 % of control
T/C [12]: 100 % of control

C=CCNC(=O)CS(=O)(=O)c1ccc(C)cc1
T/C [13]: 94 % of control
T/C [14]: 100 % of control
T/C [15]: 96 % of control

CN1c2ccccc2C(C)(C)C12C=Cc1ccccc1O2 (stereo not drawn)
T/C (dose: 25.0 mg/kg/injection, schedule: Q04DX002 (ip), vehicle: gum acacia): 111 % of control
T/C (dose: 50.0 mg/kg/injection, schedule: Q04DX002 (ip), vehicle: gum acacia): 103 % of control
T/C (dose: 100.0 mg/kg/injection, schedule: Q04DX002 (ip), vehicle: gum acacia): 88 % of control
T/C (dose: 200.0 mg/kg/injection, schedule: Q04DX002 (ip), vehicle: gum acacia): 94 % of control

Cc1nc2ccccc2o1
T/C (dose: 100.0 mg/kg/injection, schedule: Q04DX002 (ip), vehicle: other): 104 % of control
T/C (dose: 200.0 mg/kg/injection, schedule: Q04DX002 (ip), vehicle: other): 96 % of control
T/C (dose: 400.0 mg/kg/injection, schedule: Q04DX002 (ip), vehicle: other): 118 % of control

Cc1ccc(N=C(N)N=C(N)N)cc1C
T/C (dose: 75.0 mg/kg/injection, schedule: Q01DX001 (ip), vehicle: carboxymethylcellulose (CMC)): 97 % of control
T/C (dose: 150.0 mg/kg/injection, schedule: Q01DX001 (ip), vehicle: carboxymethylcellulose (CMC)): 97 % of control
T/C (dose: 300.0 mg/kg/injection, schedule: Q01DX001 (ip), vehicle: carboxymethylcellulose (CMC)): 91 % of control

O=C(COc1ccc(Cl)cc1C(=O)O)NCc1ccc(NC(=O)Nc2cccc(S(=O)(=O)F)c2)cc1
T/C [16]: 96 % of control
T/C [17]: 93 % of control
T/C [18]: 104 % of control

C[S+](C)C12CC3CC(CC(C3)C1)C2
T/C [19]: 108 % of control
T/C (dose: 25.0 mg/kg/injection, schedule: Q04DX002 (ip), vehicle: saline): 102 % of control
T/C [20]: 94 % of control
T/C (dose: 50.0 mg/kg/injection, schedule: Q04DX002 (ip), vehicle: saline): 102 % of control
T/C [1]: 86 % of control
T/C (dose: 100.0 mg/kg/injection, schedule: Q04DX002 (ip), vehicle: saline): 94 % of control and 96 % of control

Oc1c(I)cc(I)c2cccnc12
T/C [7]: 102 % of control
T/C [9]: 106 % of control

CN(C)C(=O)c1cccc(NC(=O)NCc2cccc(N3C(N)=NC(N)=NC3(C)C)c2)c1
T/C [21]: 91 % of control
T/C [13]: 97 % of control

NC(N)=Nc1ccccc1
T/C (dose: 50.0 mg/kg/injection, schedule: Q01DX009 (ip), vehicle: saline with Tween-80): 107 % of control
T/C [21]: 101 % of control
T/C [2]: 101 % of control
T/C (dose: 200.0 mg/kg/injection, schedule: Q01DX009 (ip), vehicle: saline with Tween-80): 104 % of control
T/C [4]: 115 % of control

NCc1cc2c3c(c1)CCCN3CCC2
T/C (dose: 12.5 mg/kg/injection, schedule: Q01DX001 (ip), vehicle: saline): 111 % of control
T/C (dose: 12.5 mg/kg/injection, schedule: Q01DX009 (ip), vehicle: saline): 97 % of control
T/C (dose: 25.0 mg/kg/injection, schedule: Q01DX001 (ip), vehicle: saline): 107 % of control
T/C [19]: 97 % of control
T/C (dose: 50.0 mg/kg/injection, schedule: Q01DX001 (ip), vehicle: saline): 105 % of control
T/C [20]: 104 % of control

Cc1ccc(C2CC2S(=O)(=O)c2ccccc2)cc1 (stereo not drawn)
T/C [16]: 108 % of control
T/C [17]: 112 % of control
T/C [18]: 102 % of control

CCOC(=O)C(Nc1ccccc1)C(=O)OCC
T/C [13]: 92 % of control
T/C [14]: 97 % of control
T/C [15]: 100 % of control

CC(=S)N1CCCCC1
T/C (dose: 50.0 mg/kg/injection, schedule: Q01DX001 (ip), vehicle: carboxymethylcellulose (CMC)): 100 % of control

O=NN(CCCl)C(=O)Nc1ccc(SCC(=O)O)cc1
T/C (dose: 5.0 mg/kg/injection, schedule: Q01DX001 (ip), vehicle: carboxymethylcellulose (CMC)): 117 % of control
T/C (dose: 18.0 mg/kg/injection, schedule: Q01DX001 (ip), vehicle: carboxymethylcellulose (CMC)): 161 % of control
T/C (dose: 26.0 mg/kg/injection, schedule: Q01DX001 (ip), vehicle: carboxymethylcellulose (CMC)): 175 % of control

CCCC(O)CC(C)O (stereo not drawn)
T/C [16]: 97 % of control
T/C [17]: 100 % of control
T/C [18]: 95 % of control

CCC1OC(C)CC(C)(C)O1 (stereo not drawn)
T/C [20]: 96 % of control
T/C [1]: 101 % of control
T/C [10]: 93 % of control
T/C (dose: 100.0 mg/kg/injection, schedule: Q04DX003 (ip), vehicle: acetone): 118 % of control
T/C [3]: 96 % of control
T/C [11]: 97 % of control
T/C (dose: 200.0 mg/kg/injection, schedule: Q04DX003 (ip), vehicle: acetone): 120 % of control
T/C [12]: 101 % of control
T/C (dose: 400.0 mg/kg/injection, schedule: Q04DX003 (ip), vehicle: acetone): 101 % of control

COc1ccc(CCNC(=S)NC(=O)c2ccccc2)cc1OC
T/C (dose: 100.0 mg/kg/injection, schedule: Q01DX009 (sc), vehicle: olive oil, sesame oil, peanut oil): 98 % of control
T/C (dose: 100.0 mg/kg/injection, schedule: Q04DX003 (sc), vehicle: olive oil, sesame oil, peanut oil): 100 % of control
T/C (dose: 200.0 mg/kg/injection, schedule: Q01DX009 (sc), vehicle: olive oil, sesame oil, peanut oil): 104 % of control
T/C (dose: 200.0 mg/kg/injection, schedule: Q04DX003 (sc), vehicle: olive oil, sesame oil, peanut oil): 98 % of control
T/C (dose: 400.0 mg/kg/injection, schedule: Q01DX009 (sc), vehicle: olive oil, sesame oil, peanut oil): 98 % of control
T/C (dose: 400.0 mg/kg/injection, schedule: Q04DX003 (sc), vehicle: olive oil, sesame oil, peanut oil): 103 % of control

O=C(NC1CCCCC1)Oc1ccc(Cl)cc1Cl
T/C (dose: 100.0 mg/kg/injection, schedule: Q04DX002 (ip), vehicle: Klucel (hydroxypropylcellulose) (HPC)): 93 % of control
T/C (dose: 200.0 mg/kg/injection, schedule: Q04DX002 (ip), vehicle: Klucel (hydroxypropylcellulose) (HPC)): 96 % of control
T/C (dose: 400.0 mg/kg/injection, schedule: Q04DX002 (ip), vehicle: Klucel (hydroxypropylcellulose) (HPC)): 93 % of control

COc1c([N+](=O)[O-])cc(C(=O)O)cc1[N+](=O)[O-]
T/C (dose: 100.0 mg/kg/injection, schedule: Q01DX009 (ip), vehicle: Klucel (hydroxypropylcellulose) (HPC)): 104 % of control
T/C [8]: 99 % of control
T/C (dose: 200.0 mg/kg/injection, schedule: Q01DX009 (ip), vehicle: Klucel (hydroxypropylcellulose) (HPC)): 98 % of control
T/C (dose: 200.0 mg/kg/injection, schedule: Q04DX003 (ip), vehicle: Klucel (hydroxypropylcellulose) (HPC)): 97 % of control
T/C (dose: 400.0 mg/kg/injection, schedule: Q01DX009 (ip), vehicle: Klucel (hydroxypropylcellulose) (HPC)): 98 % of control
T/C (dose: 400.0 mg/kg/injection, schedule: Q04DX003 (ip), vehicle: Klucel (hydroxypropylcellulose) (HPC)): 97 % of control

ClCOCCCCOCCl
T/C [20]: 114 % of control
T/C [1]: 87 % of control

CC(=O)Nc1ccc(OC(=O)Nc2ccc([N+](=O)[O-])cc2Cl)cc1
T/C [1]: 102 % of control
T/C [2]: 103 % of control
T/C [3]: 104 % of control
T/C [4]: 100 % of control
T/C [5]: 104 % of control
T/C [6]: 103 % of control
